Results on one compound are retold here after patent US20230174562A1, “RADIO-AND CHEMO-PROTECTIVE COMPOUNDS” (TONIX PHARMACEUTICALS, INC., priority 2020, published 2023).

For series [1] the following is noted: cited from earlier work.
In series [2] the test system is mice exposed to total body irradiation (TBI). Briefly: Phase 2 efficacy: survival of mice dosed before total body irradiation (TBI) at LD100/30. The series is classed as in vivo. The method, then: Male mice were randomized and assessed in two phases: 1) for maximum tolerated doses (MTDs) of PrC-210, DzCH2SH, and 2Pip-2PrSH to determine dose levels for the efficacy study and 2) to evaluate the efficacy of the compounds when administered 60±5 minutes prior to exposure to total body irradiation (TBI) at an LD100/30 dose (990 cGy) (Tables 1 and 2).
For Phase 1 or 2, sterile water (vehicle), PrC-210, DzCH2SH, and 2Pip2PrSH were administered at 10 mL/kg calculated based on the most recent body weight via oral gavage. Animals were not fasted prior to administration of the compounds or vehicle. Mice in Phase 1 were administered the dose on Day 1 and mice in Phase 2 were administered the dose 60±5 minutes prior to TBI on Day 0.
Irradiation was administered once to the whole body. TBI of mice were performed using a 6 MV LINAC photon source (TrueBeam STx source). Animals were irradiated at a dose rate of up to 80 cGy/min to the midline of the animals. The source irradiated animals to 50% of the dose from anterior-posterior direction and […] from the posterior-anterior direction. Dose measurements were performed with a PTW 31010 0.1 cc Semiflex Ion chamber.
All surviving animals were observed once daily for clinical signs (e.g., unusually low or high activity, lethargy, shivering, appearance of fur, bloody and water stool, and other symptoms of moribundity) at 1-2 hours post-irradiation and/or post-dose and once daily on non-dosing days until Day 4 (Phase 1) or Day 30 (Phase 2).
In Phase 2 (Table 2), survival curves of mice treated with vehicle, PrC-210, DzCH2SH or 2Pip-PrSH prior to TBI with 9.9 Gy were measured (FIG. 1). […] Five mice were moribund sacrificed, and 6 mice were found dead. Survival in the Group 13 animals was 0% and median survival time was 8 days. In mice administered with PrC-210 before TBI (Group 14), 4 animals survived until scheduled sacrifice (Day 30) while 7 mice were moribund sacrificed. […] In mice administered with DzCH2SH before TBI (Group 15), 3 animals survived until scheduled sacrifice (Day 30) while 7 mice were moribund sacrificed, and one mouse was found dead. […] Five mice were moribund sacrificed and six mice were found dead. Survival in the Group 16 mice was 0% and median survival time was 10 days.

Series [3] relates to mice exposed to radiation. The experiment in a line: Protection of mice from lethal radiation (8 Gy, LD100). The following applies: oral gavage 15-90 minutes prior to 8 Gy (LD100), 60 days post irradiation. Type of series: in vivo. Here is the method:
The radioprotective efficacy of the thiols, prodrugs and double prodrugs according to this disclosure is assessed in mice. The compounds of the disclosure are administered via oral gavage to mice, and are compared to mice that have been administered 3-(methylamino)-2-(methylaminomethyl)propane-1-thiol (PrC-210), as well as to a control group or mice that are administered vehicle (i.e., containing no radioprotective additive).
More specifically, mice are assigned to three groups (Groups 1, 2 and 3). A control group, Group 1, is treated via oral gavage with vehicle (Lactated Ringer's and 5% dextrose, adjusted to pH 7.3 with sodium bicarbonate) 15-90 minutes prior to a dose of 8 Gy (LD100) radiation. Group 2 is treated via oral gavage with PrC-210, as a positive control, dissolved in Lactated Ringer's at a dose of 200 mg/kg 15-90 minutes prior to irradiation with 8 Gy (LD100). Group 3 is treated via oral gavage with compound 1 (PrC-210-PT) dissolved in Lactated Ringer's at a dose of 308 mg/kg 15-90 minutes prior to irradiation with 8 Gy (LD100). The mortality of the three groups is assessed for 60 days post irradiation. The experiment is repeated with doses of PrC-210 ranging from 200 mg/kg to 450 mg/kg. Molar equivalent dosages of the test compound (compound 1, Prc-210-PT) to PrC-210 are also assessed.
The experiment is repeated to assess the efficacy of compounds 2-23 as radioprotectors.

Setting [4] is: 1000 mg/kg oral gavage before TBI 9.9 Gy.
Setting [5] is: after 1000 mg/kg oral gavage and TBI 9.9 Gy, 11 per group.
[6] abbreviates: of 11 mice, 1000 mg/kg oral gavage before TBI 9.9 Gy.

As to `CNCC(CS)CNC` [PrC-210, 3-(methylamino)-2-((methylamino)methyl)propane-1-thiol, reference compound], in series [1] (administered topically and orally in preclinical studies), the radioprotective properties entry was “demonstrated radioprotective properties”. Further, the side effects result in series [1] (compared with Amifostine) is on record as “less side effects than Amifostine”. Further, in series [2] (setting [4]), the “survival compared to vehicle (Group 13) by Chi-square test” value is on record as “statistically significantly higher” and the “survival compared to vehicle (Group 13) by Log-rank (Mantel-Cox) test” value is listed as “statistically significantly higher”. For the same compound, in series [2] (Day 30, male mice, 1000 mg/kg oral gavage 60±5 min before TBI 9.9 Gy (LD100/30), 11 animals), the Survival was 36.4%. The “mean body weight on Day 9 versus Groups 13, 15 and 16” value in series [2] (after 1000 mg/kg oral gavage and TBI 9.9 Gy) was “higher”. Besides, in series [2] (setting [5]), the “number of animals with eye discharge” value is recorded as “one”, the “number of animals with hypoactivity” value amounted to 5, the “number of animals with swollen eye” value was “one” and the “number of mice with tremor” value stood at 4. Moreover, in series [2] (after 1000 mg/kg oral gavage and TBI 9.9 Gy, compared to the vehicle group (Group 13)), the “body weight gain on Days 5 to 9” value is “significantly higher”. Moreover, in series [2] (male mice, 1000 mg/kg oral gavage 60±5 min before TBI 9.9 Gy (LD100/30)), the median survival time was 11 days. Besides, in series [2] (setting [6]), the “number of animals survived until scheduled sacrifice (Day 30)” value is given as 4 and the “number of mice moribund sacrificed” value was 7. Further, in series [2] (treated prior to total body irradiation (LD100/30)), the “survival of animals through 30 days post exposure” value is recorded as “increased survival”. The “rate of survival versus control group” value in series [3] is recorded as “control group demonstrates a reduced rate of survival compared to the mice treated with”.
